Assay results taken from US12054480B2, “Compounds for treating cannabinoid toxicity and acute cannabinoid overdose” (MAKScientific, LLC, priority 2020, dated 2024).

What was measured:
[1] = cited from earlier work
male CD-1 mice [2] = test: Observation chamber test - CB1 antagonist mediated side effects; format: in vivo, mouse; settings: FIG. 1; i.v., 60-minute observation; compared with rimonabant (i.p.)
Protocol: Observation chambers were used to score (count/duration) individual mouse intrinsic behavior. Male CD-1 mice (n=8) were placed in the chambers for 30 minutes to acclimate to the environment. Subjects were dosed i.v with a compound of Formula I-XI along with vehicle control groups and behavior are recorded over a 60-minute period and the results were analyzed. For statistical analysis, measurements were sampled in 5 min bins at the 5-10, 15-20, 25-30, 35-40, 45-50 and 55-60 min time intervals. The scratching response/frequency is defined based on well-established observations. Data was compared with that of rimonabant (i.p). The vehicle control group (vehicle (i.v.)) were included accordingly.

male CD-1 mice [3] = test: Reversal of CB1 SPC agonist induced neurotoxicity; format: in vivo, mouse; settings: FIGS. 2A-2B; induced by suprapharmacological doses of CB1 SPC agonist AM2201; i.v., 30 min observation

In the case of `CCCCCc1cc(O)c2c(c1)OC(C)(C)[C@@H]1CCC(C)=C[C@@H]21` [THC], the onset ([1]; humans) is listed as 30 to 60 min, the “time of peak effects” value ([1]; humans) is listed as 2 to 4 h and the “apparent plasma elimination half-life” value ([1]; in some cases) is listed as over 96 h.

With `CCOC(=O)c1ccc(-c2c(CC)c(C(=O)NN3CCCCC3)nn2-c2ccc(Cl)cc2Cl)cc1` [Compound 1, Ethyl 4-(1-(2,4-Dichlorophenyl)-4-Ethyl-3-(Piperidin-1-Ylcarbamoyl)-1H-Pyrazol-5-Yl)Benzoate] the “side effects (scratching episodes)” value (male CD-1 mice [2]) was “lesser side effects (scratching episodes) as compared to rimonabant”, the “neurotoxic effects: convulsions” value (male CD-1 mice [3]) was “blocks” and the “neurotoxic effects: tremors” value (male CD-1 mice [3]) was “blocks”.
